{"source": "paper PMC5693616", "about": "(Bioorganic & medicinal chemistry letters, 2017)", "key": {"[1]": {"target": "T1, EPAC1 (Homo sapiens, UniProt O95398)", "T1 sequence (O95398 1-923)": "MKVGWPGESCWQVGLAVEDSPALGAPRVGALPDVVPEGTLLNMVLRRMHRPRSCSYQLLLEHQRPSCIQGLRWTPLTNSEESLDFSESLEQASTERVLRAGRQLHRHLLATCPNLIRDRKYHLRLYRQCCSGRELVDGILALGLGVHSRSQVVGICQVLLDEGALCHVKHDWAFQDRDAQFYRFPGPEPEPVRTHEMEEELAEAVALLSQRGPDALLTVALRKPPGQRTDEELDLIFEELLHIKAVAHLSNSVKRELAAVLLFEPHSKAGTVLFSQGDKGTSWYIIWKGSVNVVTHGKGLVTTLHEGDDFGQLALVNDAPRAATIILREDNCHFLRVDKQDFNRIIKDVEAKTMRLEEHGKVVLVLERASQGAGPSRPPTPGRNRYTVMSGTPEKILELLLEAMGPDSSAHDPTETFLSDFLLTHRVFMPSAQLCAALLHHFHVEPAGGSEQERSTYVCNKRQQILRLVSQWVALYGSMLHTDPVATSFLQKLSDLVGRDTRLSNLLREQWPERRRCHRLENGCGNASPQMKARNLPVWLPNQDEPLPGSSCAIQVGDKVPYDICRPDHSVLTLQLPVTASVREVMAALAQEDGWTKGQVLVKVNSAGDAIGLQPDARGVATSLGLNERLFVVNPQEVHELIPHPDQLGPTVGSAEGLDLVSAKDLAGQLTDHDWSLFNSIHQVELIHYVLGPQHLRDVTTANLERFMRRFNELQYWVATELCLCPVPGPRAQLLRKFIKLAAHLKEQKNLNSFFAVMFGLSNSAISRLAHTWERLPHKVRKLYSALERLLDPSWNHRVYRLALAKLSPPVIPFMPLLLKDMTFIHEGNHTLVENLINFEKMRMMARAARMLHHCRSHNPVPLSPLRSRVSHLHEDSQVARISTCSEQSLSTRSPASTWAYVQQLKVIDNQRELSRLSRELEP", "type": "biochemical", "settings": "for EPAC inhibitory activities (in words): Rap1b-bGDP exchange assay"}, "[2]": {"tested_on": "EPAC2", "settings": "read-out: inhibition of cAMP-mediated EPAC2 GEF activity IC50; cited from earlier work"}, "[3]": {"target": "T1, EPAC1", "settings": "at 100 μM; cited from earlier work"}, "[4]": {"tested_on": "EPAC2", "settings": "read-out: EPAC2 inhibitory activity IC50; cited from earlier work"}}, "note": "pIC50: −log10 of the molar value. Read-outs that look alike come from different tables or passages of the source."}
{"smiles": "COc1ccc(C(=O)/C(C#N)=N/Nc2cc(Cl)cc(Cl)c2)cc1OC", "note": "[Compound 27]", "values": [{"measurement": "EPAC inhibitory activities (in words)", "setting": "[1]", "result": "complete loss of EPAC inhibitory activities"}]}
{"smiles": "CC(C)(C)c1ccc(C(=O)/C(C#N)=N/Nc2cc(Cl)cc(Cl)c2)cc1", "note": "[Compound 10, (E)-2-(4-(tert-Butyl)phenyl)-N-(3,5-dichlorophenyl)-2-oxoacetohydrazonoyl cyanide]", "values": [{"measurement": "improvement on EPAC1 inhibitory activity compared to compound 6", "setting": "[1]; ratio of IC50 values vs compound 6", "result": 2.5, "unit": "fold"}]}
{"smiles": "N#C/C(=N\\Nc1cc(Cl)cc(Cl)c1)C(=O)c1ccc(-c2ccccc2)cc1", "note": "[Compound 26]", "values": [{"measurement": "EPAC inhibitory activities (in words)", "setting": "[1]", "result": "complete loss of EPAC inhibitory activities"}]}
{"smiles": "Cc1cc(C)c(Nc2ccc(Cl)c(C(F)(F)F)c2)c(C)c1", "note": "[Compound 3]", "values": [{"measurement": "pIC50", "setting": "[2]", "result": 6.00}, {"measurement": "inhibition against EPAC1", "setting": "[3]", "result": "no significant inhibition"}, {"measurement": "pIC50", "setting": "[4]", "result": 6.40}]}
